The text below walks through data of patent publication USRE39056E1, “4-Azasteroids for treatment of hyperandrogenic conditions” (Merck & Co, Inc., priority 1995, dated 2006).

SMILES strings stand for the structures. pIC50: −log10 of the molar value. Like-named read-outs stand apart in the source and are kept apart here.

For experiment [1], the target named is T1, type 1 5α-reductase (Homo sapiens, UniProt P18405).
T1 construct: Preparation of Human Prostatic and Scalp 5α-reductases; from tissue; host or cells: human scalp (crude nuclear pellet of the homogenate)
T1 sequence (P18405 1-259): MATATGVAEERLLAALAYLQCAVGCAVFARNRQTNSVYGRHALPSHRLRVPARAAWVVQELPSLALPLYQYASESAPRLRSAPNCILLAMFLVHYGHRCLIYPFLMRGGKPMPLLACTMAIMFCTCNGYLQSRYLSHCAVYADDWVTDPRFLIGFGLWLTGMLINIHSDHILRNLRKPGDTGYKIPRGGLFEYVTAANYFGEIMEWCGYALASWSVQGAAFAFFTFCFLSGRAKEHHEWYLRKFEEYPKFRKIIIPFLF
Description: 5α-reductase assay, type 1 (human scalp homogenate), inhibition studies. It is filed as biochemical. How it is done: (§1) Samples of human tissue were pulverized using a freezer mill and homogenized in 40 mM potassium phosphate, pH 6.5, 5 mM magnesium sulfate, 25 mM potassium chloride, 1 mM phenylmethyl-sulfonyl fluoride, 1 mM dithiothreitol (DTT) containing 0.25 M sucrose using a Potter-Elvehjem homogenizer. A crude nuclear pellet was prepared by centrifugation of the homogenate at 1,500× G for 15 min. The crude nuclear pellet was washed two times and resuspended in two volumes of buffer. Glycerol was added to the resuspended pellet to a final concentration of 20%. The enzyme suspension was frozen in aliquots at −80° C.
(§2) The reaction mixture for the type 1 5α-reductase contained 40 mM potassium phosphate, pH 6.5, […] [7-^3H]-testosterone, 1 mM dithiothreitol and 500 μM NADPH in a final volume of 100 μL. The reaction mixture for the type 2 5α-reductase contained 40 mM sodium citrate, pH 5.5 0.3 mM [7-^3H]-testosterone, 1 mM dithiothreitol and 500 μM NADPH in a final volume of 100 μL. Typically, the assay was initiated by the addition of 50-100 μg prostatic homogenate or 75-200 μg scalp homogenate and incubated at 37° C. After 10-50 min. the reaction was quenched by extraction with 250 μL of a mixture of 70% cyclohexane: 30% ethyl acetate containing 10 μg each DHT and T. The aqueous and organic layers were separated by centrifugation at 14,000 rpm in an Eppendorf microfuge. The organic layer was subjected to normal phase HPLC (10 cm Whatman partisil 5 silica column established in 1 ml/min 70% cyclohexane: 30% ethyl acetate; retention times: DHT, 6.8-7.2 min.; androstanediol, 7.6-8.0 min.; T, 9.1-9.7 min.). […] The conversion of T to DHT was monitored using the radioactivity flow detector by mixing the HPLC effluent with one volume of Flo Scint 1 (Radiomatic).
(§3) Compounds were dissolved in 100% ethanol. The compound to be tested was pre-incubated with the enzyme (either 5α-reductase type 1 or 2) prior to initiation by addition of substrate testosterone. […] Representative compounds of this invention were tested in the above described assay for 5α-reductase type 1 and type 2 inhibition.

Experiment [2] deals with T2, type 2 5α-reductase (Homo sapiens, UniProt P31213).
T2 construct: Preparation of Human Prostatic and Scalp 5α-reductases; from tissue; host or cells: human prostate (crude nuclear pellet of the homogenate)
T2 sequence (P31213 1-254): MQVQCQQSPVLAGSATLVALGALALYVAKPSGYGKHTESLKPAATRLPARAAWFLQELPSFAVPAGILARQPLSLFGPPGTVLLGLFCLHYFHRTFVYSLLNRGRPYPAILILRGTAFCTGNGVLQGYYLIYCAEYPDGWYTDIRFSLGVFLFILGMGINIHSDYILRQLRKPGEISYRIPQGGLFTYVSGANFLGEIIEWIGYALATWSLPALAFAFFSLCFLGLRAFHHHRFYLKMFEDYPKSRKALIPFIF
Description: 5α-reductase assay, type 2 (human prostatic homogenate), inhibition studies. Type of experiment: biochemical. As for the experimental part: as §1, §2, §3

Experiment [3] has as its target T3, human androgen receptor (Homo sapiens, UniProt P10275).
T3 sequence (P10275 1-920): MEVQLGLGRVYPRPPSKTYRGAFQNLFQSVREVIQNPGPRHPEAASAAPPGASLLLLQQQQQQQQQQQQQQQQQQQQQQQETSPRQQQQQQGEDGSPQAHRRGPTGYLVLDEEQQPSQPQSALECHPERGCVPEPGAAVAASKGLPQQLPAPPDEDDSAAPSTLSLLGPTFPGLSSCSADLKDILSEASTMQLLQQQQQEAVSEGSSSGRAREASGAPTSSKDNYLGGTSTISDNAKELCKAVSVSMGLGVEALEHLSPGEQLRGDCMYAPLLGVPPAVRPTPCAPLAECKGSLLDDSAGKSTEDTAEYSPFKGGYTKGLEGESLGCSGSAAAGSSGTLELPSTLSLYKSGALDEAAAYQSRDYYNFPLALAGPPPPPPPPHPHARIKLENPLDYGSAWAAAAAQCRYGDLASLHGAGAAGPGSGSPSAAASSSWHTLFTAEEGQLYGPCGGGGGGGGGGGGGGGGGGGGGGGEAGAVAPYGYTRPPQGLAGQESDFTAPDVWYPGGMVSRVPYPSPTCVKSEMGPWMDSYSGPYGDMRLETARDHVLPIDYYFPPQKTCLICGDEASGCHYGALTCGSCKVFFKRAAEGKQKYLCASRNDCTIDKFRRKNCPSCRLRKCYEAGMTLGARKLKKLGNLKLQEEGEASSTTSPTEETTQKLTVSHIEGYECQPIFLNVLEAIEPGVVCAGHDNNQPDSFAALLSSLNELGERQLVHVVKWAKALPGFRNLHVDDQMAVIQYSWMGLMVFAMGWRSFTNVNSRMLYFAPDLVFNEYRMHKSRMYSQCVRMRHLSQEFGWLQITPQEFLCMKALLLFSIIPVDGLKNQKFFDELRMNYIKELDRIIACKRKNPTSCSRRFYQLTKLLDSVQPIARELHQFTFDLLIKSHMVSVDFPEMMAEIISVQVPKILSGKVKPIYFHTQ
Description: Human androgen receptor activity assay (anti-androgen activity, hAR). Type of experiment: binding.

[4] abbreviates: human, conversion of testosterone to DHT, pH 6.5, read-out: IC50 Type 1 5aR.
The mark [5] stands for this setting: human, conversion of testosterone to DHT, pH 5.5, read-out: IC50 Type 2 5aR.
The mark [6] stands for this setting: human, anti-androgen activity, read-out: IC50 hAR.

By pIC50 is commonly meant the IC50 on a negative log10 scale, so that one unit is a factor of ten. For the compound `CN1C(=O)C=C[C@]2(C)[C@H]3CC[C@]4(C)[C@@H](C(=O)Nc5cc(C(F)(F)F)ccc5C(F)(F)F)CC[C@H]4[C@@H]3CC[C@@H]12` [Example 7, N-(2,5-bistrifluoromethyl-phenyl)-3-oxo-4-aza-4-methyl-5α-androst-1-ene-17β-carboxamide], the values for the negative-log IC50 (pIC50) in experiment [1], in experiment [2] and in experiment [3] were 8.40, 7.70 and 7.70, respectively.

`Cc1ccccc1NC(=O)[C@H]1CC[C@H]2[C@@H]3CC[C@H]4N(C)C(=O)C=C[C@]4(C)[C@H]3CC[C@]12C` [Example 5, N-(2-methylphenyl)-3-oxo-4-aza-4-methyl-5α-androst-1-ene-17β-carboxamide]: the results for the pIC50 in experiment [1], in experiment [2] and in experiment [3] were 7.70, 7.70 and 7.52, respectively.

On to `CN1C(=O)C=C[C@]2(C)[C@H]3CC[C@]4(C)[C@@H](C(=O)Nc5ccccc5C(F)(F)F)CC[C@H]4[C@@H]3CC[C@@H]12` [Example 4, N-(2-trifluoromethyl-phenyl)-3-oxo-4-aza-4-methyl-5α-androst-1-ene-17β-carboxamide], for which the negative-log IC50 (pIC50) was 8.70 in experiment [1], 8.15 in experiment [2] and 7.52 in experiment [3].

For the compound `CN1C(=O)C=C[C@]2(C)[C@H]3CC[C@]4(C)[C@@H](C(=O)Nc5ccccc5F)CC[C@H]4[C@@H]3CC[C@@H]12` [Example 3, N-(2-fluorophenyl)-3-oxo-4-aza-4-methyl-5α-androst-1-ene-17β-carboxamide], the negative-log IC50 (pIC50) in experiment [1] was 7.70; in experiment [2], 7.22; in experiment [3], 8.05.

As for `COc1ccccc1NC(=O)[C@H]1CC[C@H]2[C@@H]3CC[C@H]4N(C)C(=O)C=C[C@]4(C)[C@H]3CC[C@]12C` [Example 2, N-(2-methoxyphenyl)-3-oxo-4-aza-4-methyl-5α-androst-1-ene-17β-carboxamide], the pIC50 in experiment [1] was 7.70; in experiment [2], 7.00; in experiment [3], 7.40.

For `CN(C(=O)[C@H]1CC[C@H]2[C@@H]3CC[C@H]4N(C)C(=O)C=C[C@]4(C)[C@H]3CC[C@]12C)C(c1ccccc1)c1ccccc1` [Example 11, N-(diphenylmethyl)-N-(methyl)-4-methyl-3-oxo4-aza-5α-androst-1-ene-17-β-carboxamide], the negative-log IC50 (pIC50) in experiment [1] (setting [4]) was 8.52; in experiment [2] (setting [5]), 9.52; in experiment [3] (setting [6]), 6.07.

In the case of `CN1C(=O)C=C[C@]2(C)[C@H]3CC[C@]4(C)[C@@H](C(=O)Nc5ccc(Cl)cc5)CC[C@H]4[C@@H]3CC[C@@H]12` [Example 1, N-(4-chlorophenyl)-3-oxo-4-methyl-4-aza-5α-androst-1-ene-17β-carboxamide], the pIC50 in experiment [1] is 7.40; in experiment [2], 7.00; in experiment [3] (setting [6]), 8.00.

As for `CN1C(=O)C=C[C@]2(C)[C@H]3CC[C@]4(C)[C@@H](C(=O)NC(c5ccccc5)c5ccccc5)CC[C@H]4[C@@H]3CC[C@@H]12` [Example 10, N-(diphenylmethyl)-4-methyl-3-oxo-4-aza-5α-androst-1-ene-17-β-carboxamide], the results for the pIC50 in experiment [1] (setting [4]), in experiment [2] (setting [5]) and in experiment [3] (setting [6]) were 7.70, 8.70 and 7.40, respectively.

Consider `CN1C(=O)C=C[C@]2(C)[C@H]3CC[C@]4(C)[C@@H](C(=O)Nc5ccccc5Cl)CC[C@H]4[C@@H]3CC[C@@H]12` [Example 6, N-(2-chlorophenyl)-3-oxo-4-aza-4-methyl-5α-androst-1-ene-17β-carboxamide], for which the results for the pIC50 in experiment [1], in experiment [2] and in experiment [3] were 8.22, 8.00 and 8.10, respectively.
